We go through 9 molecules from patent US9708336B2, “Metallo-beta-lactamase inhibitors” (priority 2014, dated 2017).

Test [1] concerns the target VIM-1 (Pseudomonas aeruginosa (strain ATCC 15692 / DSM 22644 / CIP 104116 / JCM 14847 / LMG 12228 / 1C / PRS 101 / PAO1), UniProt A0A0F7KYQ8). Kind of test: Enzyme activity: determination of IC50, fluorescence assay with CCF2-FA substrate (VIM-1). To be noted: VIM-1 enzyme, read-out: VIM-1 IC50. Type of test: biochemical.
Test [2] concerns Escherichia coli expressing NDM-1 (CLB30016). Kind of test: Antibiotic potentiation activity: synergistic concentration (MITC95) with imipenem, OD600 growth. Format: cell-based. The following applies: 95% growth inhibition. The method, then:
(§1) Antibiotic Potentiation Activity: Determination of Synergistic Concentration
(§2) The bacterial strains tested included the clinical strains Escherichia coli expressing NDM-1 (CLB30005, CLB30016), Serratia marcescens expressing IMP-1 (CL5741), and Klebsiella pneumoniae expressing VIM-1 (IHMA599644) Inhibitor activity was measured in the presence and absence of imipenem in a 384-well microplate.
(§3) The clinical strains CLB30016, CL5741 and IHMA599644 were grown on trypticase soy agar containing 5% sheep's blood. The clinical strain CLB30005 was grown on Mueller Hinton broth agar containing 8 ug/ml imipenem. The bacteria on agar plates were incubated at 35° C. with humidity overnight. The following day, individual colonies from each clinical strain were picked and resuspended in 5 ml saline to attain an OD600 of 0.14, 0.11, 0.15 and 0.13, for CLB30005, CLB30016, CL5741 and IHMA599644, respectively. These were further diluted 1:100 into 1.1×CAMHB and used to inoculate the test wells as described below.
(§4) Imipenem in 10 mM 3-(N-morpholino)propanesulfonic acid (MOPS, pH 7) was stored in single use aliquots at −80° C. […] On the day of the assay, 4 μl of antibiotic was added to 45 ul of bacteria followed by 1 μl of test compound and mixed by pipetting and with an orbital shaker. The concentration of antibiotic used in the assay was 4 μg/ml, or optionally 1 μg/ml. Microplates were covered and incubated at 35° C. for 22 hours to 24 hours. At the end of the incubation, absorbance was determined using a spectrophotometer.

Test [3] deals with Klebsiella pneumoniae expressing VIM-1 (IHMA599644). The description is as above. Type of test: cell-based. To be noted: 95% growth inhibition. The procedure: as §1, §2, §3, §4
The test system of test [4] is Serratia marcescens expressing IMP-1 (CL5741). The description is as above. The following applies: 95% growth inhibition. Type of test: cell-based. The method, then:
as §1, §2, §3, §4

Setting [5] is: Escherichia coli expressing NDM-1 (CLB30016).
[6] abbreviates: Klebsiella pneumoniae expressing VIM-1 (IHMA599644).
The mark [7] stands for this setting: Serratia marcescens expressing IMP-1 (CL5741).
The mark [8] stands for this setting: Klebsiella pneumoniae IHMA599644 (VIM-1).
Where [9] appears, read: Serratia marcescens CL5741 (IMP-1).

In general, IC50 refers to the concentration that gives 50% inhibition.

Read-outs that look alike come from different tables or passages of the source.

On to `NCc1ccc(-c2ccc(Br)c(S(N)(=O)=O)c2-c2nn[nH]n2)cc1` [Example 271, 4′-(aminomethyl)-4-bromo-2-(2H-tetrazol-5-yl)-[1,1′-biphenyl]-3-sulfonamide], for which, in test [1] (CCF2-FA fluorescence assay), the IC50 turned out to be 11.7 nM. Moreover, the “Escherichia coli MITC95” value in test [2] (setting [5]) was 0.3906 µM. Besides, the “Klebsiella pneumoniae MITC95” value in test [3] (setting [6]) was 2.344 µM. For the same molecule, the “Serratia marcescens MITC95” value in test [4] (setting [7]) was 0.5859 µM.

As for `NS(=O)(=O)c1c(CCC2CCNCC2)ccc(-c2ccnc3ccccc23)c1-c1nn[nH]n1` [Example 452, 6-(2-(piperidin-4-yl)ethyl)-3-(quinolin-4-yl)-2-(2H-tetrazol-5-yl)benzenesulfonamide], the IC50 in test [1] (CCF2-FA fluorescence assay) stood at 1.98 nM. The “Escherichia coli MITC95” value in test [2] (setting [5]) turned out to be 1.563 µM. In addition, the “Klebsiella pneumoniae MITC95” value in test [3] (setting [6]) was 4.688 µM. Besides, the “Serratia marcescens MITC95” value in test [4] (setting [7]) was found to be 9.375 µM.

Regarding `C[N+]1(C)CCc2c(cccc2-c2ccc(C(F)(F)F)c(S(N)(=O)=O)c2-c2nn[nH]n2)C1` [Example 520, 2,2-Dimethyl-5-(3-sulfamoyl-2-(2H-tetrazol-5-yl)-4-(trifluoromethyl)phenyl)-1,2,3,4-tetrahydroisoquinolin-2-ium], in test [1] (CCF2-FA substrate), the IC50 amounted to 1.96 nM. Further, in test [2] ((CLB30016, NDM-1)), the “Escherichia coli MITC95” value was 3.125 µM. The “Klebsiella pneumoniae MITC95” value in test [3] (setting [8]) was 3.125 µM. Further, in test [4] (setting [9]), the “Serratia marcescens MITC95” value stood at 3.125 µM.

For `CC(C)(C)Cc1ccc(-c2cccc3sc(N)nc23)c(-c2nn[nH]n2)c1S(N)(=O)=O` [Example 537, 3-(2-Aminobenzo[d]thiazol-4-yl)-6-neopentyl-2-(2H-tetrazol-5-yl)benzenesulfonamide], in test [1] (CCF2-FA substrate), the IC50 turned out to be 66.7 nM. Also, the “Escherichia coli MITC95” value in test [2] ((CLB30016, NDM-1)) stood at 50 µM. In addition, in test [3] (setting [8]), the “Klebsiella pneumoniae MITC95” value is greater than 200 µM. Further, the “Serratia marcescens MITC95” value in test [4] (setting [9]) was 50 µM.

Turning to `Nc1nc2c(-c3ccc(CCC4CCNCC4)c(S(N)(=O)=O)c3-c3nn[nH]n3)cccc2s1` [Example 540, 3-(2-Aminobenzo[d]thiazol-4-yl)-6-(2-(piperidin-4-yl)ethyl)-2-(2H-tetrazol-5-yl)benzenesulfonamide], the IC50 in test [1] (CCF2-FA substrate) came out at 6.7 nM. Besides, the “Escherichia coli MITC95” value in test [2] ((CLB30016, NDM-1)) was 1.563 µM. In addition, in test [3] (setting [8]), the “Klebsiella pneumoniae MITC95” value worked out at 12.5 µM. Besides, the “Serratia marcescens MITC95” value in test [4] (setting [9]) came to 6.25 µM.

As to `Cc1nc(N)ccc1-c1ccc(C(F)(F)F)c(S(N)(=O)=O)c1-c1nn[nH]n1` [Example 555, 3-(6-amino-2-methyl-3-pyridyl)-2-(2H-tetrazol-5-yl)-6-(trifluoromethyl)benzenesulfonamide], in test [1] (CCF2-FA substrate), the IC50 was 0.177 nM. Moreover, the “Escherichia coli MITC95” value in test [2] ((CLB30016, NDM-1)) amounted to 0.5859 µM. In addition, in test [3] (setting [8]), the “Klebsiella pneumoniae MITC95” value turned out to be 3.125 µM. Also, the “Serratia marcescens MITC95” value in test [4] (setting [9]) stood at 6.25 µM.

In the case of `Cc1cc(N)ncc1-c1ccc(C(F)(F)F)c(S(N)(=O)=O)c1-c1nn[nH]n1` [Example 557, 3-(6-amino-4-methyl-3-pyridyl)-2-(2H-tetrazol-5-yl)-6-(trifluoromethyl)benzenesulfonamide], in test [1] (CCF2-FA substrate), the IC50 worked out at 0.656 nM. The “Escherichia coli MITC95” value in test [2] ((CLB30016, NDM-1)) was found to be 0.3906 µM. For the same molecule, in test [3] (setting [8]), the “Klebsiella pneumoniae MITC95” value was found to be 6.25 µM. The “Serratia marcescens MITC95” value in test [4] (setting [9]) is 6.25 µM.

`NS(=O)(=O)c1c(CCC2CCNCC2)ccc(-c2ccc(C3CNC3)cc2)c1-c1nnn[nH]1` [Example 598, 3-[4-(azetidin-3-yl)phenyl]-6-[2-(4-piperidyl)ethyl]-2-(1H-tetrazol-5-yl)benzenesulfonamide]: the IC50 in test [1] (CCF2-FA substrate) is 4.41 nM. Moreover, the “Escherichia coli MITC95” value in test [2] ((CLB30016, NDM-1)) worked out at 1.563 µM. For the same molecule, in test [3] (setting [8]), the “Klebsiella pneumoniae MITC95” value worked out at 1.563 µM. For the same molecule, in test [4] (setting [9]), the “Serratia marcescens MITC95” value stood at 3.125 µM.

Regarding `Cn1cncc1CN1CCC(c2ccc(-c3cccc(S(N)(=O)=O)c3-c3nnn[nH]3)cc2)CC1` [Example 620, 3-[4-[1-[(3-methylimidazol-4-yl)methyl]-4-piperidyl]phenyl]-2-(1H-tetrazol-5-yl)benzenesulfonamide], the IC50 in test [1] (CCF2-FA substrate) is 1030 nM. For the same molecule, in test [2] ((CLB30016, NDM-1)), the “Escherichia coli MITC95” value turned out to be 7.813 µM. Moreover, in test [3] (setting [8]), the “Klebsiella pneumoniae MITC95” value is greater than 200 µM. The “Serratia marcescens MITC95” value in test [4] (setting [9]) was 2.344 µM.
